Results as given in US20260053932A1, “COMPOUNDS AND METHODS FOR THE TARGETED DEGRADATION OF ANDROGEN RECEPTOR AND ASSOCIATED METHODS OF USE” (Arvinas Operations, Inc., priority 2020, published 2026).

System: androgen receptor (AR) in LNCaP and/or VCaP cells
Experiment: Androgen Receptor ELISA assay (AR degradation)
Format: cell-based
Conditions: LNCaP and/or VCaP cells; 5 hours incubation; media with R1881; read-out: DC50 Code* (degradation of AR ELISA)
Summary of the method: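 VCaP cells grown ≥3 days, then treated 5 h with compound in media containing 1 nM R1881 (10× stock). Cells lysed and AR quantified by sandwich ELISA (mouse AR detection Ab, HRP anti-mouse, TMB). DC50 and Dmax derived from AR degradation.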

| DC50 [nM] | Structure (SMILES) |
| --- | --- |
| > 100 | CC1(C)[C@H](NC(=O)c2ccn([C@H]3CC[C@H](CCCOc4ccc5c(c4)C(=O)N(C4CCC(=O)NC4=O)C5=O)CC3)n2)C(C)(C)[C@H]1Oc1ccc(C#N)c(Cl)c1 (stereo partly drawn) [Compound 72, N-((1r,3R)-3-(3-chloro-4-cyanophenoxy)-2,2,4,4-tetramethylcyclobutyl)-1-((1r,4R)-4-(3-((2-(2,6-dioxopiperidin-3-yl)-1,3-dioxoisoindolin-5-yl)oxy)propyl)cyclohexyl)-1H-pyrazole-3-carboxamide] |
| < 1 | N#Cc1ccc(O[C@H]2CC[C@H](NC(=O)c3cnc(N4CCC(CN(C5COC5)[C@H]5C[C@H](Oc6ccc7c(c6)C(=O)N(C6CCC(=O)NC6=O)C7)C5)CC4)cn3)CC2)cc1Cl (some centres unmarked) [Compound 15, N-((1r,4r)-4-(3-chloro-4-cyanophenoxy)cyclohexyl)-5-(4-((((1r,3r)-3-((2-(2,6-dioxopiperidin-3-yl)-3-oxoisoindolin-5-yl)oxy)cyclobutyl) (oxetan-3-yl)amino)methyl)piperidin-1-yl)pyrazine-2-carboxamide] |
| < 1 | COc1cc(O[C@H]2CC[C@H](NC(=O)c3cnc(N4CC5(CC(CN(C(C)C)[C@H]6C[C@H](Oc7ccc8c(c7)C(=O)N(C7CCC(=O)NC7=O)C8=O)C6)C5)C4)nc3)CC2)ccc1C#N (some centres unmarked) [Compound 36, N-((1r,4r)-4-(4-cyano-3-methoxyphenoxy)cyclohexyl)-2-(6-((((1r,3r)-3-((2-(2,6-dioxopiperidin-3-yl)-1,3-dioxoisoindolin-5-yl)oxy)cyclobutyl) (isopropyl)amino)methyl)-2-azaspiro[3.3]heptan-2-yl)pyrimidine-5-carboxamide] |
| < 1 | COc1cc(O[C@H]2CC[C@H](NC(=O)c3cnc(N4CCC(CN(C(C)C)[C@H]5C[C@H](Oc6ccc7c(c6)C(=O)N(C6CCC(=O)NC6=O)C7)C5)CC4)cn3)CC2)ccc1C#N (some centres unmarked) [Compound 34, N-((1r,4r)-4-(4-cyano-3-methoxyphenoxy)cyclohexyl)-5-(4-((((1r,3r)-3-((2-(2,6-dioxopiperidin-3-yl)-3-oxoisoindolin-5-yl)oxy)cyclobutyl) (isopropyl)amino)methyl)piperidin-1-yl)pyrazine-2-carboxamide] |

Same assay, conditions: degradation of AR ELISA in LNCaP and/or VCaP cells; Table 2C; read-out: DC50 Code*

| DC50 [nM] | Structure (SMILES) |
| --- | --- |
| < 1 | COCCN(CC1CC2(C1)CN(c1ccc(C(=O)N[C@H]3C(C)(C)[C@H](Oc4ccc(C#N)c(OC)c4)C3(C)C)cc1)C2)[C@H]1C[C@H](Oc2ccc3c(c2)C(=O)N(C2CCC(=O)NC2=O)C3=O)C1 (mixture of isomers) [compound 190, rac-N-((1r,3r)-3-(4-cyano-3-methoxyphenoxy)-2,2,4,4-tetramethylcyclobutyl)-4-(6-((((1r,3r)-3-((2-(2,6-dioxopiperidin-3-yl)-1,3-dioxoisoindolin-5-yl)oxy)cyclobutyl)(2-methoxyethyl)amino)methyl)-2-azaspiro[3.3]heptan-2-yl)benzamide] |
| < 1 | CC1(C)[C@H](NC(=O)c2ccc(N3CCC(CN4CCN(c5ccc6c(c5)C(=O)N([C@@]5(C#N)CCC(=O)NC5=O)C6)CC4)CC3)cc2)C(C)(C)[C@H]1Oc1ccc(C#N)c(Cl)c1 [compound 234, N-((1r,3r)-3-(3-chloro-4-cyanophenoxy)-2,2,4,4-tetramethylcyclobutyl)-4-(4-((4-(2-((R)-3-cyano-2,6-dioxopiperidin-3-yl)-3-oxoisoindolin-5-yl)piperazin-1-yl)methyl)piperidin-1-yl)benzamide] |
| < 1 | Cc1cc(O[C@H]2C(C)(C)[C@H](NC(=O)c3cnc(N4CCC(CN(CC(F)F)[C@H]5C[C@H](Oc6ccc7c(c6)CN(C6CCC(=O)NC6=O)C7=O)C5)CC4)nc3)C2(C)C)cc(C)c1C#N (some centres unmarked) [compound 97, N-((1r,3r)-3-(4-cyano-3,5-dimethylphenoxy)-2,2,4,4-tetramethylcyclobutyl)-2-(4-(((2,2-difluoroethyl)((1r,3r)-3-((2-(2,6-dioxopiperidin-3-yl)-1-oxoisoindolin-5-yl)oxy)cyclobutyl)amino)methyl)piperidin-1-yl)pyrimidine-5-carboxamide] |
| < 1 | CCN(CC1CCN(c2ccc(C(=O)N[C@H]3C(C)(C)[C@H](Oc4ccc(C#N)c(OC)c4)C3(C)C)cc2)CC1)[C@H]1C[C@H](Oc2ccc3c(c2)C(=O)N(C2CCC(=O)NC2=O)C3=O)C1 (some centres unmarked) [compound 147, N-((1r,3r)-3-(4-cyano-3-methoxyphenoxy)-2,2,4,4-tetramethylcyclobutyl)-4-(4-((((1r,3r)-3-((2-(2,6-dioxopiperidin-3-yl)-1,3-dioxoisoindolin-5-yl)oxy)cyclobutyl)(ethyl)amino)methyl)piperidin-1-yl)benzamide] |
| < 1 | Cc1cc(O[C@H]2C(C)(C)[C@H](NC(=O)c3ccc(N4CCC(CN5CCOC[C@@H]5COc5ccc6c(c5)C(=O)N(C5CCC(=O)NC5=O)C6=O)CC4)cc3)C2(C)C)cc(C)c1C#N (stereo partly drawn) [compound 213, N-((1r,3R)-3-(4-cyano-3,5-dimethylphenoxy)-2,2,4,4-tetramethylcyclobutyl)-4-(4-(((3R)-3-(((2-(2,6-dioxopiperidin-3-yl)-1,3-dioxoisoindolin-5-yl)oxy)methyl)morpholino)methyl)piperidin-1-yl)benzamide] |
| < 1 | CC1(C)[C@H](NC(=O)c2ccc(N3CCC(CN(CCN4CCOCC4)[C@H]4C[C@H](Oc5ccc6c(c5)C(=O)N(C5CCC(=O)NC5=O)C6=O)C4)CC3)cc2)C(C)(C)[C@H]1Oc1ccc(C#N)c(Cl)c1 (some centres unmarked) [compound 219, N-((1r,3r)-3-(3-chloro-4-cyanophenoxy)-2,2,4,4-tetramethylcyclobutyl)-4-(4-((((1r,3r)-3-((2-(2,6-dioxopiperidin-3-yl)-1,3-dioxoisoindolin-5-yl)oxy)cyclobutyl)(2-morpholinoethyl)amino)methyl)piperidin-1-yl)benzamide] |
| < 1 | COCCN(CC1CCN(c2cnc(C(=O)N[C@H]3C(C)(C)[C@H](Oc4cc(C)c(C#N)c(C)c4)C3(C)C)cn2)CC1)[C@H]1C[C@H](Oc2cc3c(cc2OC)C(=O)N(C2CCC(=O)NC2=O)C3=O)C1 (mixture of isomers) [compound 222, rac-N-((1r,3r)-3-(4-cyano-3,5-dimethylphenoxy)-2,2,4,4-tetramethylcyclobutyl)-5-(4-((((1r,3r)-3-((2-(2,6-dioxopiperidin-3-yl)-6-methoxy-1,3-dioxoisoindolin-5-yl)oxy)cyclobutyl)(2-methoxyethyl)amino)methyl)piperidin-1-yl)pyrazine-2-carboxamide] |
| 1 to 10 | Cc1cc(O[C@H]2C(C)(C)[C@H](NC(=O)c3cnc(N4CC(CN(C(C)C)[C@H]5C[C@H](Oc6ccc7c(c6)C(=O)N(C6CCC(=O)NC6=O)C7=O)C5)C4)cn3)C2(C)C)cc(C)c1C#N (some centres unmarked) [compound 131, N-((1r,3r)-3-(4-cyano-3,5-dimethylphenoxy)-2,2,4,4-tetramethylcyclobutyl)-5-(3-((((1r,3r)-3-((2-(2,6-dioxopiperidin-3-yl)-1,3-dioxoisoindolin-5-yl)oxy)cyclobutyl) (isopropyl)amino)methyl)azetidin-1-yl)pyrazine-2-carboxamide] |
| < 1 | Cc1cc(O[C@H]2C(C)(C)[C@H](NC(=O)c3ccc(N4CCC(CN5CCCC[C@@H]5COc5ccc6c(c5)C(=O)N(C5CCC(=O)NC5=O)C6=O)CC4)cc3)C2(C)C)cc(C)c1C#N (stereo partly drawn) [compound 192, N-((1r,3R)-3-(4-cyano-3,5-dimethylphenoxy)-2,2,4,4-tetramethylcyclobutyl)-4-(4-(((2R)-2-(((2-(2,6-dioxopiperidin-3-yl)-1,3-dioxoisoindolin-5-yl)oxy)methyl)piperidin-1-yl)methyl)piperidin-1-yl)benzamide] |
| < 1 | COc1cc(O[C@H]2C[C@H](N(CC3(F)CCN(c4ncc(C(=O)N[C@H]5C(C)(C)[C@H](Oc6cc(C)c(C#N)c(C)c6)C5(C)C)cn4)CC3)C(C)C)C2)cc2c1C(=O)N(C1CCC(=O)NC1=O)C2=O (some centres unmarked) [compound 231, N-((1r,3r)-3-(4-cyano-3,5-dimethylphenoxy)-2,2,4,4-tetramethylcyclobutyl)-2-(4-((((1r,3r)-3-((2-(2,6-dioxopiperidin-3-yl)-7-methoxy-1,3-dioxoisoindolin-5-yl)oxy)cyclobutyl) (isopropyl)amino)methyl)-4-fluoropiperidin-1-yl)pyrimidine-5-carboxamide] |
| < 1 | [2H]C([2H])([2H])Oc1cc(O[C@H]2C[C@H](N(CC3CCN(c4cnc(C(=O)N[C@H]5C(C)(C)[C@H](Oc6cc(C)c(C#N)c(C)c6)C5(C)C)cn4)CC3)C(C)C)C2)cc2c1C(=O)N(C1CCC(=O)NC1=O)C2=O (mixture of isomers) [compound 195, rac-N-((1r,3r)-3-(4-cyano-3,5-dimethylphenoxy)-2,2,4,4-tetramethylcyclobutyl)-5-(4-((((1r,3r)-3-((2-(2,6-dioxopiperidin-3-yl)-7-(methoxy-d3)-1,3-dioxoisoindolin-5-yl)oxy)cyclobutyl) (isopropyl)amino)methyl)piperidin-1-yl)pyrazine-2-carboxamide] |
| < 1 | COc1cc(O[C@H]2C[C@H](N(C)CC3CCN(c4cnc(C(=O)N[C@H]5C(C)(C)[C@H](Oc6cc(C)c(C#N)c(C)c6)C5(C)C)cn4)CC3)C2)cc2c1C(=O)N(C1CCC(=O)NC1=O)C2=O (mixture of isomers) [compound 218, rac-N-((1r,3r)-3-(4-cyano-3,5-dimethylphenoxy)-2,2,4,4-tetramethylcyclobutyl)-5-(4-((((1r,3r)-3-((2-(2,6-dioxopiperidin-3-yl)-7-methoxy-1,3-dioxoisoindolin-5-yl)oxy)cyclobutyl) (methyl)amino)methyl)piperidin-1-yl)pyrazine-2-carboxamide] |
| < 1 | COc1cc(O[C@H]2C[C@H](N(C)CCOC3CCN(c4ccc(C(=O)N[C@H]5C(C)(C)[C@H](Oc6cc(C)c(C#N)c(C)c6)C5(C)C)cc4)CC3)C2)cc2c1C(=O)N(C1CCC(=O)NC1=O)C2=O (some centres unmarked) [compound 164, N-((1r,3r)-3-(4-cyano-3,5-dimethylphenoxy)-2,2,4,4-tetramethylcyclobutyl)-4-(4-(2-(((1r,3r)-3-((2-(2,6-dioxopiperidin-3-yl)-7-methoxy-1,3-dioxoisoindolin-5-yl)oxy)cyclobutyl) (methyl)amino)ethoxy)piperidin-1-yl)benzamide] |
